One series relates to RPLP1 protein. As to the kind of experiment: Target protein reduction by Western blot in HepG2.2.15 cells. Format: cell-based, human. As to conditions: 10 nM siRNA, 72 h. As for the experimental part: The host factors likely function in viral infection as proteins. Therefore, we determined whether the siRNAs could decrease the amounts of the target protein. Cell transfected with 10 nM of each siRNA for 72 h were lysed and the target proteins identified using Western blots probed with target-specific antibodies. The effective siRNAs described in Table 3 reduced the levels of the proteins by between 28 and 92% of the mock-treated samples. The reduction in the proteins is less than the reduction of the target mRNA, likely due to the proteins have prolonged half-life and that more time is needed for their degradation. […] We reason that this is due to RPLP1 and RPLP2 functioning as heterodimers such that a decrease of one protein increases the vulnerability of the other protein to degradation. Similar concomitant decrease of the proteins was reported by Campos et al. (17). Finally, the levels of two cellular proteins that are not targeted by the siRNAs, P54nrb and GAPDH, were unaffected.

The next series relates to HCoV-OC43. Briefly: OC43 virion RNA, Branched DNA assay, infected HCT8 cells. The following applies: for OC43 vRNA reduction siRNA and siGRP78: 10 nM siRNA along with 10 nM of siRNA targeting GRP78, HCT8 cells; for OC43 vRNA reduction: 10 nM siRNA, HCT8 cells. Format: cell-based, human coronavirus OC43. As for the experimental part: The siRNAs were transfected in the HCT8 cells at a final concentration of 10 nM. A positive control for the inhibition of Coronavirus infection, Remdesivir (Rem), was used at 0.9 μM. The virion RNAs (vRNAs) were quantified using a Branched DNA assay specific for OC43 RNA.
The two siRNAs are those referred to by compound number (see Table 2) in the horizontal bar, along with siRNA targeting GRP78, siGRP78. A positive control for the inhibition of Coronavirus infection, Remdesivir (Rem), was used at 0.9 μM. The vRNAs were quantified using a Branched DNA assay specific for OC43 RNA.
The siRNAs listed in Table 2 were transfected into human colon epithelial HCT8 cells and the amount of OC43 virion produced was quantified. In these assays, the OC43 vRNA was quantified using a Branched DNA assay (QuantiGene gene expression assay: ThermoFisher). As a positive inhibitory control, the infected cells were treated with Remdesivir. […] Examples of the inhibition of OC43 vRNA are illustrated in FIG. 5A.
A combination of siRNAs targeting the host factor should more robustly reduce OC43 virion production. To illustrate this, HCT8 cells were transfected with 10 nM of siRNAs from Table 2 along with 10 nM of siRNA targeting GRP78. The virion RNAs produced were quantified using the Branched DNA assay. […] A combination of siRNAs targeting host factors GRP78, SRSF1, RPLP1 and RPLP2 can lead to significant reduction in the production of human Coronavirus virion RNA from infected cells.

Another series concerns HBsAg. The following applies: HepG2.2.15 cells; for EC50: read-out: EC50, Extracell. HBsAg reduction. As for the experimental part:
(§1) Cell viability was assessed by ATP levels determined using the CellTiter-Glo reagent and the results normalized to the level in mock-treated cells. HBsAg levels were quantified using ELISA and the data normalized to the level in the mock-treated cells.
The cellular proteins GRP78/BIP, SRSF1, HNRNPA2B1, RPLP1, and RPLP2 were identified as having roles in HBV replication and infection. Various siRNAs and combinations thereof targeting the RNAs encoding these proteins were contacted with HepG2.2.15 cells at a final concentration of 7.5 nM.
The EC50 values of several siRNAs and combinations of siRNAs targeting HNRNPA2B1, GRP78, RPLP1, RPLP2, and/or SRSF1 were determined with respect to the ability to reduce HBsAg levels in HepG2.2.15 cells.
(§2) The ability of siRNAs targeting host factors that then results in the reduced production of multiple HBV molecules was evaluated by quantifying the amount of HBsAg, HBeAg, and Core protein produced by HepG2.2.15 cells after contacting with 10 nM of siRNAs that target HNRNPA2B1, GRP78, RPLP1, RPLP2, and SRSF1. We also contacted the cells with 5 nM of each set of siRNAs that targets both RPLP1 and RPLP2. The level of HBsAg, HBeAg, and Core were all determined using ELISAs.
(§3) The library of siRNAs of Example A5 were tested for the reduction of HBsAg secreted by HepG2.2.15 cells and in HBV virions.

For another series, the system named is HepG2.2.15 cells. Briefly: HepG2.2.15 cell viability, CellTiter-Glo. As to conditions: for CC50: read-out: CC50, HepG2.2.15 cell viability, highest concentration tested 80 nM. Here is the method: as §1
The effects on cell viability were quantified using the CellTiter-Glo reagent. All data were normalized to the amount of protein produced by mock-treated cells.
as §3

Another series has as its system HBeAg. As to conditions: for HBeAg reduction HepG2.2.15 cells: 10 nM siRNA transfected into cells. Here is the method:
HBeAg in the cell culture media was assessed using ELISAs.
as §2, §3

The test system of a further series is RPLP1 mRNA. Briefly: Target mRNA reduction by RT-qPCR in HepG2.2.15 cells. As to conditions: 10 nM siRNA. Format: cell-based, human. From the text:
The siRNAs identified as described in Example A6 should function by a mechanism that includes being loaded in the RISC complex to cleave the cognate mRNA, leading to the degradation of the mRNA. To examine whether the siRNAs are effective in reducing the target mRNA, we used reverse transcription coupled with quantitative polymerase chain reaction (RT-qPCR) to assess the level of the target mRNA in HepG2.2.15 cells. All 32 siRNAs described in Table 2 reduced the mRNA by more than 75% (Table 3).

On to “26 (GAAGCAAAGAAAGAAGAAUCCTTAUUCUUCUUUCUUUGCUUCCATT; siRNA; Self-complementary hairpin strand, chemistry not given here, further chemistry not given here; listed as Homo sapiens) [compound 26]”, for which, in the series on RPLP1 protein, the “Target protein reduction in HepG2.2.15 cells” value (from here on “Target protein reduction”) amounted to 72 ± 17%. Further, in the series on HCoV-OC43, the “OC43 vRNA reduction siRNA and siGRP78” value is 95 ± 1%; the “OC43 vRNA reduction” value was found to be 91 ± 3%. For the same substance, the EC50 with HBsAg came to 376 pM. Also, in the series with HepG2.2.15 cells, the CC50 was over 80000 pM. In the series with HBeAg, the “HBeAg reduction HepG2.2.15 cells” value is given as 64 ± 3%. Also, the “Target RNA reduction in HepG2.2.15 cells” value in the series with RPLP1 mRNA was determined as 86 ± 1%.
In the case of “25 (GAUCAAUGCCCUCAUUAAAGCTTUUUAAUGAGGGCAUUGAUCUUTT; siRNA; Self-complementary hairpin strand, chemistry not given here, further chemistry not given here; listed as Homo sapiens) [compound 25]”, the “Target protein reduction” value in the series on RPLP1 protein came out at 53 ± 12%. Moreover, in the series on HCoV-OC43, the “OC43 vRNA reduction siRNA and siGRP78” value was 88 ± 3%; the “OC43 vRNA reduction” value was 80 ± 7%. Besides, in the series on HBsAg, the EC50 stood at 1830 pM. Besides, in the series with HepG2.2.15 cells, the CC50 is over 80000 pM. In addition, the “HBeAg reduction HepG2.2.15 cells” value with HBeAg turned out to be 60 ± 3%. Besides, in the series on RPLP1 mRNA, the “Target RNA reduction in HepG2.2.15 cells” value is 74 ± 6%.
Consider “31 (UUUGGCCUGGCUUGUUUGCAAUUUUGCAAACAAGCCAGGCCAAAUU; siRNA; Self-complementary hairpin strand, chemistry not given here, further chemistry not given here; listed as Homo sapiens) [compound 31]”, for which, in the series on RPLP1 protein, the “Target protein reduction” value is listed as 37 ± 7%. Further, in the series with HCoV-OC43, the “OC43 vRNA reduction siRNA and siGRP78” value came to 82 ± 6%; the “OC43 vRNA reduction” value was determined as 82 ± 4%. In addition, the EC50 in the series on HBsAg was 12 pM. In addition, the CC50 with HepG2.2.15 cells is over 80000 pM. Further, in the series on RPLP1 mRNA, the “Target RNA reduction in HepG2.2.15 cells” value came out at 84 ± 4%.
With “27 (GGUCUUUUUGACUAAACCUCUTTAGGUUUAGUCAAAAAGACCAATT; siRNA; Self-complementary hairpin strand, chemistry not given here, further chemistry not given here; listed as Homo sapiens) [compound 27]”, the “Target protein reduction” value in the series with RPLP1 protein was determined as 51 ± 9%. In addition, in the series with HCoV-OC43, the “OC43 vRNA reduction siRNA and siGRP78” value is 95 ± 2%; the “OC43 vRNA reduction” value was 94 ± 4%. In the series with HBsAg, the EC50 was found to be 110 pM. The CC50 with HepG2.2.15 cells was over 80000 pM. The “HBeAg reduction HepG2.2.15 cells” value in the series with HBeAg was found to be 55 ± 5%. In addition, the “Target RNA reduction in HepG2.2.15 cells” value in the series on RPLP1 mRNA is recorded as 72 ± 7%.
Turning to “28 (UAUGGCCUCUGUCUCCGAGCUUUAGCUCGGAGACAGAGGCCAUAUU; siRNA; Self-complementary hairpin strand, chemistry not given here, further chemistry not given here; listed as Homo sapiens) [compound 28]”, in the series with RPLP1 protein, the “Target protein reduction” value turned out to be 58 ± 7%. In the series on HCoV-OC43, the “OC43 vRNA reduction siRNA and siGRP78” value is 71 ± 6%; the “OC43 vRNA reduction” value came out at 48 ± 12%. The EC50 with HBsAg worked out at 190 pM. Moreover, the CC50 in the series with HepG2.2.15 cells was over 80000 pM. Besides, the “HBeAg reduction HepG2.2.15 cells” value with HBeAg is reported as 30 ± 4%. Moreover, the “Target RNA reduction in HepG2.2.15 cells” value in the series with RPLP1 mRNA is 80 ± 2%.
“30 (AGGAUAAGAUCAAUGCCCUUCUUGAAGGGCAUUGAUCUUAUCCUUU; siRNA; Self-complementary hairpin strand, chemistry not given here, further chemistry not given here; listed as Homo sapiens) [compound 30]”: the “Target protein reduction” value in the series on RPLP1 protein was 45 ± 8%. For the same substance, in the series with HCoV-OC43, the “OC43 vRNA reduction siRNA and siGRP78” value was 84 ± 6%; the “OC43 vRNA reduction” value amounted to 90 ± 6%. The EC50 in the series with HBsAg stood at 690 pM. Besides, the CC50 with HepG2.2.15 cells is over 80000 pM. For the same substance, in the series on HBeAg, the “HBeAg reduction HepG2.2.15 cells” value is given as 58 ± 4%. For the same substance, the “Target RNA reduction in HepG2.2.15 cells” value in the series with RPLP1 mRNA was determined as 78 ± 3%.
Turning to “32 (AGAAGAAAGUGGAAGCAAAGAUUUCUUUGCUUCCACUUUCUUCUUU; siRNA; Self-complementary hairpin strand, chemistry not given here, further chemistry not given here; listed as Homo sapiens) [compound 32]”, in the series with RPLP1 protein, the “Target protein reduction” value was 71 ± 8%. In the series on HCoV-OC43, the “OC43 vRNA reduction siRNA and siGRP78” value is 86 ± 4%; the “OC43 vRNA reduction” value is reported as 87 ± 4%. The EC50 with HBsAg was 525 pM. Also, in the series with HepG2.2.15 cells, the CC50 was over 80000 pM. Further, the “HBeAg reduction HepG2.2.15 cells” value in the series on HBeAg was 32 ± 6%. The “Target RNA reduction in HepG2.2.15 cells” value with RPLP1 mRNA was found to be 80 ± 7%.
As to “29 (UGUCUCCGAGCUCGCCUGCAUUUAUGCAGGCGAGCUCGGAGACAUU; siRNA; Self-complementary hairpin strand, chemistry not given here, further chemistry not given here; listed as Homo sapiens) [compound 29]”, the “Target protein reduction” value in the series on RPLP1 protein is listed as 52 ± 4%. For the same substance, in the series on HCoV-OC43, the “OC43 vRNA reduction siRNA and siGRP78” value was 92 ± 3%; the “OC43 vRNA reduction” value is 87 ± 10%. Moreover, the EC50 with HBsAg worked out at 386 pM. In the series with HepG2.2.15 cells, the CC50 was over 80000 pM. For the same substance, the “HBeAg reduction HepG2.2.15 cells” value in the series with HBeAg was determined as 58 ± 3%. In the series on RPLP1 mRNA, the “Target RNA reduction in HepG2.2.15 cells” value is 75 ± 1%.
On to “24 (GCAAAGAAAGAAGAAUCCGTTCGGAUUCUUCUUUCUUUGCTT; siRNA; Self-complementary hairpin strand, chemistry not given here, further chemistry not given here; listed as Homo sapiens) [compound 24]”, for which the “Target protein reduction” value in the series on RPLP1 protein is on record as 48 ± 3%. For the same substance, in the series with HCoV-OC43, the “OC43 vRNA reduction siRNA and siGRP78” value stood at 94 ± 4%; the “OC43 vRNA reduction” value was 89 ± 8%. Moreover, the “HBsAg level, dose response” value in the series on HBsAg (FIG. 5A) is listed as “dose-dependent reduction of HBV S-antigen (HBsAg)”. Moreover, in the series on HBsAg, the EC50 was 359 pM. Further, the CC50 with HepG2.2.15 cells is over 80000 pM. Besides, the “cytotoxicity / cell viability, siRNA library” value with HepG2.2.15 cells (up to the highest concentration tested, 80 nM) is given as “without affecting cell viability”. Moreover, the “HBeAg reduction HepG2.2.15 cells” value in the series on HBeAg stood at 66 ± 2%. The “HBeAg level, siRNA library” value with HBeAg (HepG2.2.15 cells, Example A6, FIG. 5A) was “inhibited the levels of HBsAg and HBeAg”. Also, in the series on RPLP1 mRNA, the “Target RNA reduction in HepG2.2.15 cells” value was determined as 80 ± 1%.

Values taken from patent publication US11613750B2, “Methods of reducing virus molecule levels” (priority 2019, dated 2023).
